Legend:
[1] = Hygroscopicity: standing for nine days at controlled temperature and relative humidity; assay type: physicochemical; details: for decomposition or change in weight on standing: initial water content approximately 14%
Experimental: U2P4.4Na crystals (octahydrate) having a water content of approximately 14% were allowed to stand for nine days under the following conditions: a) 25° C. and a relative humidity of 57%; b) 25° C. and a relative humidity of 75%; and c) 40° C. and a relative humidity of 75%. […] The crystals have proven to be stable and to have no hygroscopicity. U2P4.4Na crystals (tetrahydrate) having a water content of approximately 8% were allowed to stand for nine days under conditions of 40° C. and a relative humidity of 75%. In this case, the water content increased to 14-15%.

[2] = Stability: acceleration test in sealed bottles at 60° C. for 13 days; assay type: physicochemical; details: sealed bottle, 13 days at 60° C.
Experimental: U2P4.4Na crystals (octahydrate) and a lyophilized product were placed in respective bottles, which were then sealed and allowed to stand for 13 days at 60° C. (acceleration test).

| Structure (SMILES) | state of the product on storage ([1]; 40° C. and a relative humidity of 75%, on the seventh day of storage) | change of water content on standing ([1]; nine days, 40° C. and a relative humidity of 75%, initial water content approximately 1%) | decomposition [2] | weight loss of U2P4.4Na [2] | water content after standing ([1]; nine days, 40° C. and a relative humidity of 75%, initial water content approximately 8% (tetrahydrate)) | decomposition or change in weight on standing ([1]; nine days, 25° C. and a relative humidity of 57%) | decomposition or change in weight on standing ([1]; nine days, 25° C. and a relative humidity of 75%) | decomposition or change in weight on standing ([1]; nine days, 40° C. and a relative humidity of 75%) |
| --- | --- | --- | --- | --- | --- | --- | --- | --- |
| O=c1ccn([C@@H]2O[C@H](COP(=O)([O-])OP(=O)([O-])OP(=O)([O-])OP(=O)([O-])OC[C@H]3O[C@@H](n4ccc(=O)[nH]c4=O)C(O)C3O)C(O)C2O)c(=O)[nH]1.[Na+].[Na+].[Na+].[Na+] (stereo partly drawn) [lyophilized product, P^1,P^4-di(uridine 5′-)tetraphosphate tetrasodium salt, reference compound] | mud-like state due to deliquescence | increased gradually | partial decomposition | approximately 1.4% |  |  |  |  |
| O=c1ccn([C@@H]2O[C@H](COP(=O)([O-])OP(=O)([O-])OP(=O)([O-])OP(=O)([O-])OC[C@H]3O[C@@H](n4ccc(=O)[nH]c4=O)C(O)C3O)C(O)C2O)c(=O)[nH]1.[Na+].[Na+].[Na+].[Na+] (stereo partly drawn) [U2P4.4Na crystals (tetrahydrate), P^1,P^4-di(uridine 5′-)tetraphosphate tetrasodium salt] |  |  |  |  | 14-15% |  |  |  |
| O=c1ccn([C@@H]2O[C@H](COP(=O)([O-])OP(=O)([O-])OP(=O)([O-])OP(=O)([O-])OC[C@H]3O[C@@H](n4ccc(=O)[nH]c4=O)C(O)C3O)C(O)C2O)c(=O)[nH]1.[Na+].[Na+].[Na+].[Na+] (stereo partly drawn) [U2P4.4Na crystals (octahydrate), P^1,P^4-di(uridine 5′-)tetraphosphate tetrasodium salt] |  |  | No decomposition |  |  | No decomposition or change in weight | No decomposition or change in weight | No decomposition or change in weight |

Source: patent publication US20020156269A1, “Crystals of diuridine tetraphosphate or salt thereof, process for producing the crystals, and process for producing the compounds” (YAMASA CORPORATION, priority 1998, published 2002)
